In patent US7928107B2, “Quinazolines useful as modulators of ion channels” (Vertex Pharmaceuticals Incorporated, priority 2004, dated 2011) one finds IC50 data, which are given here for 25 molecules.

The target in the assay is NaV 1.8 channel (Homo sapiens, UniProt Q9Y5Y9). Kind of assay: Activity against NaV 1.8 channel (optical membrane potential assay). Format: cell-based. The protocol: Compounds of the invention are useful as antagonists of voltage-gated sodium ion channels. Antagonist properties of test compounds were assessed as follows. Cells expressing the NaV of interest were placed into microtiter plates. After an incubation period, the cells were stained with fluorescent dyes sensitive to the transmembrane potential. The test compounds were added to the microtiter plate. The cells were stimulated with either a chemical or electrical means to evoke a NaV dependent membrane potential change from unblocked channels, which was detected and measured with trans-membrane potential-sensitive dyes. Antagonists were detected as a decreased membrane potential response to the stimulus. The optical membrane potential assay utilized voltage-sensitive FRET sensors described by Gonzalez and Tsien (See, Gonzalez, J. E. and R. Y. Tsien (1995) “Voltage sensing by fluorescence resonance energy transfer in single cells” Biophys J 69(4): 1272-80, and Gonzalez, J. E. and R. Y. Tsien (1997) “Improved indicators of cell membrane potential that use fluorescence resonance energy transfer” Chem Biol 4(4): 269-77) in combination with instrumentation for measuring fluorescence changes such as the Voltage/Ion Probe Reader (VIPR®) (See, Gonzalez, J. E., K. Oades, et al. (1999) “Cell-based assays and instrumentation for screening ion-channel targets” Drug Discov Today 4(9): 431-439).
Sequence of NaV 1.8 channel (Q9Y5Y9 whole entry): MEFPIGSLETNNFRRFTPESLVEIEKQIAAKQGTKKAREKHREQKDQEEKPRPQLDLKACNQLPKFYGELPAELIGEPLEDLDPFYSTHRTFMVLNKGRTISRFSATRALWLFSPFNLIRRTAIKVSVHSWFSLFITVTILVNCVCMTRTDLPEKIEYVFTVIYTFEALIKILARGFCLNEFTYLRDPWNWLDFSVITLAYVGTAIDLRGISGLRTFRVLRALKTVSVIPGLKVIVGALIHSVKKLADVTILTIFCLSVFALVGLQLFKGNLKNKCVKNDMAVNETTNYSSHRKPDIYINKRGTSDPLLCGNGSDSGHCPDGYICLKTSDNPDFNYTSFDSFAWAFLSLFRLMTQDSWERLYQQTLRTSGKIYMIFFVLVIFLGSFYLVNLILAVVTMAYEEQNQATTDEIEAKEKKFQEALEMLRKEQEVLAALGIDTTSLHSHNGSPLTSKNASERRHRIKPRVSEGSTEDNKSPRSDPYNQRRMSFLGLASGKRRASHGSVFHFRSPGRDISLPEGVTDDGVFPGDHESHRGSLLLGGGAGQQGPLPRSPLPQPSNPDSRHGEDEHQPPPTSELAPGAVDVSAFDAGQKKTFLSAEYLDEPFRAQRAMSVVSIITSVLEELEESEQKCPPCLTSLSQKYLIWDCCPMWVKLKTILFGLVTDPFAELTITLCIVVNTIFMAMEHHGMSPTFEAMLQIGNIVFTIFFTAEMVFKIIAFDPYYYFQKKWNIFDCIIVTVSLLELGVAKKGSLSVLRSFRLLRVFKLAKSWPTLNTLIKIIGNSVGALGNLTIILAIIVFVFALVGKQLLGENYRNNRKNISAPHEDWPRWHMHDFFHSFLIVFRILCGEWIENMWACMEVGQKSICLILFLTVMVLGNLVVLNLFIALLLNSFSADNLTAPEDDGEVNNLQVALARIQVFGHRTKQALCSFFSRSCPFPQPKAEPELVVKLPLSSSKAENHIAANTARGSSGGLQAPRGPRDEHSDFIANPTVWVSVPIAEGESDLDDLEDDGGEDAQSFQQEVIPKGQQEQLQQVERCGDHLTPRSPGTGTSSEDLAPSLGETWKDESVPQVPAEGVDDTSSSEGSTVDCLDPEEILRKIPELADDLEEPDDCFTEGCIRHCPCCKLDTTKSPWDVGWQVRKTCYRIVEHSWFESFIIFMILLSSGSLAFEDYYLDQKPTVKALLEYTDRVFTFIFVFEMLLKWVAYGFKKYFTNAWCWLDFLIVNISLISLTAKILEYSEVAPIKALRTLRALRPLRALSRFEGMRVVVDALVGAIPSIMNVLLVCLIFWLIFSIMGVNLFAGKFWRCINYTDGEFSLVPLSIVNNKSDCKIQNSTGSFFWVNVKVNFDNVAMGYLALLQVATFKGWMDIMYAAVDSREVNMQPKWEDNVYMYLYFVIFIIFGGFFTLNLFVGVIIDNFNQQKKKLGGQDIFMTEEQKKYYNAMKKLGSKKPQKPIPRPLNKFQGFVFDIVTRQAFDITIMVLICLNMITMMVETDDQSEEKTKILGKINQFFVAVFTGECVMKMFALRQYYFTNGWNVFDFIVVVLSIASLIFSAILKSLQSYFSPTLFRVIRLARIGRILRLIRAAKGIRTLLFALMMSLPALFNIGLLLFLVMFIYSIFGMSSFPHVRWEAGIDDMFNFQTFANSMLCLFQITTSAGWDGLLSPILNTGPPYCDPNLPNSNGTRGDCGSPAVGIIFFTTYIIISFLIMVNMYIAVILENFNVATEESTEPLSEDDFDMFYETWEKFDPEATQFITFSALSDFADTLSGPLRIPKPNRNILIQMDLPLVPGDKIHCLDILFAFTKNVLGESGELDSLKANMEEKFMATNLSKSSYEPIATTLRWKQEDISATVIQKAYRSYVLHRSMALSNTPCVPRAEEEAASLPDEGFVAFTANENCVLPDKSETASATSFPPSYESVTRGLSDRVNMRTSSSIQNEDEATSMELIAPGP
24 hours before the assay on VIPR, CHO cells endogenously expressing a NaV1.2 type voltage-gated NaV are seeded in 96-well poly-lysine coated plates at 60,000 cells per well. Other subtypes are performed in an analogous mode in a cell line expressing the NaV of interest. • 1) On the day of the assay, medium is aspirated and cells are washed twice with 225 μL of Bath Solution #2 (BS#2). • 2) A 15 uM CC2-DMPE solution is prepared by mixing 5 mM coumarin stock solution with 10% Pluronic 127 1:1 and then dissolving the mix in the appropriate volume of BS#2. • 3) After bath solution is removed from the 96-well plates, the cells are loaded with 80 μL of the CC2-DMPE solution. Plates are incubated in the dark for 30 minutes at room temperature. • 4) While the cells are being stained with coumarin, a […] solution in BS#2 is prepared. In addition to DiSBAC2(3), this solution should contain 0.75 mM ABSCl and […] (prepared from 10 mM EtOH stock, Sigma #V-5754). • 5) After 30 minutes, CC2-DMPE is removed and the cells are washed twice with 225 μL of BS#2. As before, the residual volume should be 40 μL. • 6) Upon removing the bath, the cells are loaded with 80 μL of the DiSBAC2(3) solution, after which test compound, dissolved in DMSO, is added to achieve the desired test concentration to each well from the drug addition plate and mixed thoroughly. The volume in the well should be roughly 121 μL. The cells are then incubated for 20-30 minutes. • 7) Once the incubation is complete, the cells are ready to be assayed on VIPR® with a sodium add back protocol. 120 μL of Bath solution #1 is added to stimulate the NaV dependent depolarization. […] was used as an antagonist positive control for block of the NaV channel.
Data are analyzed and reported as normalized ratios of background-subtracted emission intensities measured in the 460 nm and 580 nm channels. Background intensities are then subtracted from each assay channel. Background intensities are obtained by measuring the emission intensities during the same time periods from identically treated assay wells in which there are no cells. The response as a function of time is then reported as the ratios obtained using the following formula: […]
The data is further reduced by calculating the initial (Ri) and final (Rf) ratios. These are the average ratio values during part or all of the pre-stimulation period, and during sample points during the stimulation period. The response to the stimulus R=Rf/Ri is then calculated. […]
As to `Cc1ccc2c(N3CCN(C(=O)[C@H](O)CC(N)=O)CC3)nc(-c3ccccc3O)nc2c1` [Example 154, (R)-3-Hydroxy-4-(4-(2-(2-hydroxyphenyl)-7-methylquinazolin-4-yl)piperazin-1-yl)-4-oxobutanamide], the IC50 is more than 10 µM.
Regarding `Cc1ccc2c(N3CCN(C(=O)[C@H](O)CC(C)C)C[C@@H]3C(C)C)nc(-c3ccccc3O)nc2c1` [Example 155, (R)-2-Hydroxy-1-((S)-4-(2-(2-hydroxyphenyl)-7-methylquinazolin-4-yl)-3-isopropylpiperazin-1-yl)-4-methylpentan-1-one], the 50% inhibitory concentration (IC50) was more than 10 µM.
As for `Cc1ccc2c(N3CCN(C(=O)OCc4cccnc4)CC3)nc(-c3c(O)cccc3F)nc2c1` [Example 156, (Pyridin-3-yl)methyl 4-(2-(2-fluoro-6-hydroxyphenyl)-7-methylquinazolin-4-yl)piperazine-1-carboxylate], the IC50 is 2 to 10 µM.
With `Cc1ccc2c(N3CCN(C(=O)OCc4ccccc4)CC3CO)nc(-c3ccccc3O)nc2c1` (stereo not shown) [Example 157, 3-Hydroxymethyl-4-[2-(2-hydroxy-phenyl)-7-methyl-quinazolin-4-yl]-piperazine-1-carboxylic acid benzyl ester], the IC50 was 2 to 10 µM.
With `C#CC(O)C(=O)N1CCN(c2nc(-c3ccccc3O)nc3cc(C)ccc23)CC1` (stereo not shown) [Example 158, 2-Hydroxy-1-(4-(2-(2-hydroxyphenyl)-7-methylquinazolin-4-yl)piperazin-1-yl)but-3-yn-1-one], the half-maximal inhibitory concentration (IC50) is more than 10 µM.
Turning to `CCCCC(O)C(=O)N1CCN(c2nc(-c3ccccc3O)nc3ccccc23)CC1` (stereo not shown) [Example 159, 2-Hydroxy-1-(4-(2-(2-hydroxyphenyl)quinazolin-4-yl)piperazin-1-yl)hexan-1-one], the IC50 was 2 to 10 µM.
As for `O=C(OCC1CCCCO1)N1CCN(c2nc(-c3ccccc3O)nc3ccc(F)cc23)CC1` (stereo not shown) [Example 160, (Tetrahydro-2H-pyran-2-yl)methyl 4-(6-fluoro-2-(2-hydroxyphenyl)quinazolin-4-yl)piperazine-1-carboxylate], the figure is more than 10 µM; as for `Cc1ccc2c(N3CCN(C(=O)OCC4CCOC4)CC3)nc(-c3c(O)cccc3F)nc2c1` (stereo not shown) [Example 162, (Tetrahydrofuran-3-yl)methyl 4-(2-(2-fluoro-6-hydroxyphenyl)-7-methylquinazolin-4-yl)piperazine-1-carboxylate], 2 to 10 µM.
On to `Cc1ccc2c(N3CCN(C(=O)O[C@H]4CCOC4)CC3)nc(-c3c(O)cccc3F)nc2c1` [Example 163, (S)-Tetrahydrofuran-3-yl 4-(2-(2-fluoro-6-hydroxyphenyl)-7-methylquinazolin-4-yl)piperazine-1-carboxylate], for which the concentration for half-maximal inhibition (IC50) lay in the range of 2 to 10 µM.
For the molecule `Cc1ccc2c(N3CCN(C(=O)[C@H](O)CC(C)(C)O)CC3)nc(-c3ccccc3O)nc2c1` [Example 164, (R)-2,4-Dihydroxy-1-(4-(2-(2-hydroxyphenyl)-7-methylquinazolin-4-yl)piperazin-1-yl)-4-methylpentan-1-one], the IC50 is more than 10 µM.
As for `CCC(C)(O)C(=O)N1CCN(c2nc(-c3ccccc3O)nc3cc(C)ccc23)CC1` (stereo not shown) [Example 165, 2-Hydroxy-1-(4-(2-(2-hydroxyphenyl)-7-methylquinazolin-4-yl)piperazin-1-yl)-2-methylbutan-1-one], the IC50 lay within 2 to 10 µM.
Take `Cc1ccc2c(N3CCN(C(=O)[C@@H](O)C(C)(C)C)CC3)nc(-c3ccccc3O)nc2c1` [Example 166, (S)-2-Hydroxy-1-(4-(2-(2-hydroxyphenyl)-7-methylquinazolin-4-yl)piperazin-1-yl)-3,3-dimethylbutan-1-one]: the IC50 was more than 10 µM.
As to `Cc1ccc2c(N3CCN(C(=O)C(O)c4ccc(F)cc4)CC3)nc(-c3c(O)cccc3F)nc2c1` (stereo not shown) [Example 167, 1-(4-(2-(2-Fluoro-6-hydroxyphenyl)-7-methylquinazolin-4-yl)piperazin-1-yl)-2-(4-fluorophenyl)-2-hydroxyethanone], the concentration for half-maximal inhibition (IC50) was more than 10 µM.
As for `Cc1ccc2c(N3CCN(C(=O)[C@H](O)CC(C)C)CC3)nc(-c3ccccc3O)nc2c1` [Example 168, (R)-2-Hydroxy-1-(4-(2-(2-hydroxyphenyl)-7-methylquinazolin-4-yl)piperazin-1-yl)-4-methylpentan-1-one], the figure is 2 to 10 µM; as for `CNCC(=O)N(C)CC(=O)O[C@H](CC(C)C)C(=O)N1CCN(c2nc(-c3ccccc3O)nc3cc(C)ccc23)CC1` [Example 169, (R)-[Methyl-(2-methylamino-acetyl)-amino]-acetic acid 1-{4-[2-(2-hydroxy-phenyl)-7-methyl-quinazolin-4-yl]-piperazine-1-carbonyl}-3-methyl-butyl ester], more than 10 µM; as for `Cc1ccc2c(N3CCN(C(=O)C(O)c4ccc(F)cc4)CC3)nc(-c3ccccc3O)nc2c1` (stereo not shown) [Example 170, 2-(4-Fluorophenyl)-2-hydroxy-1-(4-(2-(2-hydroxyphenyl)-7-methylquinazolin-4-yl)piperazin-1-yl)ethanone], more than 10 µM.
Regarding `Cc1ccc2c(N3CCN(C(=O)[C@H](O)CC(C)C)CC3CO)nc(-c3ccccc3O)nc2c1` (stereo partly drawn) [Example 172, (R)-2-Hydroxy-1-{3-hydroxymethyl-4-[2-(2-hydroxy-phenyl)-7-methyl-quinazolin-4-yl]-piperazin-1-yl}-4-methyl-pentan-1-one], the half-inhibitory concentration (IC50) was more than 10 µM.
In the case of `C[C@@H](O)CC(=O)N1CCN(c2nc(-c3ccccc3O)nc3ccccc23)CC1` [Example 173, (R)-3-Hydroxy-1-(4-(2-(2-hydroxyphenyl)quinazolin-4-yl)piperazin-1-yl)butan-1-one], the 50% inhibitory concentration (IC50) is more than 10 µM.
For `CCCC(O)C(=O)N1CCN(c2nc(-c3ccccc3O)nc3ccccc23)CC1` (stereo not shown) [Example 174, 2-Hydroxy-1-(4-(2-(2-hydroxyphenyl)quinazolin-4-yl)piperazin-1-yl)pentan-1-one] the value was 2 to 10 µM.
For `Cc1ccc2c(N3CCN(C(=O)CCN4CCCCC4)CC3)nc(-c3ccccc3O)nc2c1` [Example 175, 1-(4-(2-(2-Hydroxyphenyl)-7-methylquinazolin-4-yl)piperazin-1-yl)-3-(piperidin-1-yl)propan-1-one], the half-inhibitory concentration (IC50) was more than 10 µM.
Consider `CC[C@@H](C)[C@@H](O)C(=O)N1CCN(c2nc(-c3ccccc3O)nc3cc(C)ccc23)CC1` [Example 176, (2R,3R)-2-Hydroxy-1-(4-(2-(2-hydroxyphenyl)-7-methylquinazolin-4-yl)piperazin-1-yl)-3-methylpentan-1-one], for which the IC50 is more than 10 µM.
For `Cc1ccc2c(N3CCN(C(=O)[C@H](O)C(F)(F)F)CC3)nc(-c3ccccc3O)nc2c1` [Example 177, (S)-3,3,3-Trifluoro-2-hydroxy-1-(4-(2-(2-hydroxyphenyl)-7-methylquinazolin-4-yl)piperazin-1-yl)propan-1-one] the value was 2 to 10 µM; for `CC(O)(C(=O)N1CCN(c2nc(-c3ccccc3O)nc3ccccc23)CC1)C(F)(F)F` (stereo not shown) [Example 178, 2-(Trifluoromethyl)-2-hydroxy-1-(4-(2-(2-hydroxyphenyl)quinazolin-4-yl)piperazin-1-yl)propan-1-one], more than 10 µM; for `Cc1ccc2c(N3CCN(C(=O)C(O)CCl)CC3)nc(-c3ccccc3O)nc2c1` (stereo not shown) [Example 179, 3-Chloro-2-hydroxy-1-(4-(2-(2-hydroxyphenyl)-7-methylquinazolin-4-yl)piperazin-1-yl)propan-1-one], more than 10 µM.
As for `Cc1ccc2c(N3CCN(C(=O)C(O)CC(C)C)CC3)nc(-c3ccccc3O)nc2c1` (stereo not shown) [Example 180], the half-inhibitory concentration (IC50) was in the range of 2 to 10 µM.
